Among the data in ChEMBL document CHEMBL6153048, “Synthesis and pharmacological evaluation of natural product diphyllin derivatives against head and neck squamous cell carcinoma” (Eur J Med Chem, 2025) are inhibition, IC50 and Activity values, retold here.

Activity calls are given as the source filed them. No cut-off for these calls is given here. Some results are limits rather than exact numbers.

Series [1] can be described thus: Antiproliferative activity against human HN-6 cells assessed as inhibition rate at 0.1 uM incubated for 72 hrs by MTT assay relative to control. In kind it is functional. For orientation: Tetrazolium dyes change colour on reduction, which living cells bring about.
The subject of series [2] is SCC-25. Put plainly: Cytotoxicity against human SCC-25 cells incubated for 72 hrs by MTT assay. In kind it is functional, cell-based. As to conditions: SCC-25, 72 h.
Series [3] in a line: Antiproliferative activity against human WSU HN-30 cells assessed as inhibition rate at 0.1 uM incubated for 72 hrs by MTT assay relative to control. As to conditions: WSU-HN30. Format: functional.
Series [4] relates to SCC-9. In words: Cytotoxicity against human SCC-9 cells incubated for 72 hrs by MTT assay. Format: functional, cell-based. The following applies: SCC-9, 72 h.
Series [5] has as its system SCC-9. Put plainly: Antiproliferative activity against human SCC-9 cells assessed as inhibition rate at 0.1 uM incubated for 72 hrs by MTT assay relative to control. Format: functional.
Series [6] can be described thus: Cytotoxicity against human […] incubated for 72 hrs by MTT assay. Format: functional, cell-based. The following applies: WSU-HN30, 72 h.
The subject of series [7] is CAL-27. Put plainly: Antiproliferative activity against human CAL-27 cells assessed as inhibition rate at 0.1 uM incubated for 72 hrs by MTT assay relative to control. Format: functional.
The subject of series [8] is SCC-25. Put plainly: Antiproliferative activity against human SCC-25 cells assessed as inhibition rate at 0.1 uM incubated for 72 hrs by MTT assay relative to control. In kind it is functional.
A short description of series [9]: Cytotoxicity against human HN-6 cells incubated for 72 hrs by MTT assay. Format: functional, cell-based. The following applies: HN-6, 72 h.
Series [10] is described as follows: Cytotoxicity against human L02 cells incubated for 72 hrs by MTT assay. In kind it is toxicity, cell-based.
The subject of series [11] is CAL-27. In words: Antiproliferative activity against human CAL-27 cells assessed as inhibition of cell communities at 10 uM treated for 11 days by plate clone formation assay. In kind it is functional, cell-based. The following applies: time 11.0 day.
Series [12] can be described thus: Antiproliferative activity against human L02 cells assessed as inhibition rate at 0.1 uM incubated for 72 hrs by MTT assay relative to control. Format: toxicity, cell-based.
Series [13] relates to CAL-27. In words: Cytotoxicity against human CAL-27 cells incubated for 72 hrs by MTT assay. In kind it is functional, cell-based. The following applies: CAL-27, 72 h.

Usually inhibition stands for the percentage by which the read-out fell short of the control. By IC50 is commonly meant the concentration needed to halve the response being measured. Take `COc1cc2c(O[C@@H]3O[C@@H]4CO[C@@H](c5ccco5)O[C@H]4[C@H](O)[C@H]3O)c3c(c(-c4ccc5c(c4)OCO5)c2cc1OC)C(=O)OC3`: the inhibition at 0.1 µM in series [1] turned out to be 58.7%; in series [3], 45.7%; in the series on SCC-9 [5], 52.9%; with CAL-27 [7], 50.9%; with SCC-25 [8] it was 54.6%. Besides, the IC50 with SCC-25 [2] was determined as 4.31 nM; in the series on SCC-9 [4] it was 4.97 nM; in series [6], 243 nM; in [9], 8.58 nM; with CAL-27 [13] it was 5.47 nM. The IC50 at 72 h in series [10] is over 10000 nM. Moreover, the result with CAL-27 [11] was Active. Moreover, the inhibition at 72 h, 0.1 µM in [12] turned out to be 5.23%.
As for `COc1cc2c(O[C@@H]3O[C@@H]4CO[C@@H](c5cccs5)O[C@H]4[C@H](O)[C@H]3O)c3c(c(-c4ccc5c(c4)OCO5)c2cc1OC)C(=O)OC3`, the inhibition at 0.1 µM in series [1] is 56.3%; in [3], 41.3%; in the series on SCC-9 [5] it was 54%; in the series with CAL-27 [7] it was 50.7%; with SCC-25 [8], 52.5%. For the same compound, the IC50 in the series on SCC-25 [2] worked out at 9.34 nM; with SCC-9 [4], 31.5 nM; in series [6], 120 nM; in [9], 68.1 nM; in the series with CAL-27 [13], 18.1 nM. For the same compound, the IC50 at 72 h in series [10] was over 10000 nM. In [12], the inhibition at 72 h, 0.1 µM was determined as 7.19%.
With `COc1cc2c(O[C@@H]3O[C@@H]4CO[C@@H](C5CCCCC5)O[C@H]4[C@H](O)[C@H]3O)c3c(c(-c4ccc5c(c4)OCO5)c2cc1OC)C(=O)OC3`, the inhibition at 0.1 µM was found to be 62.1% in series [1]; 40.6% in series [3]; 46.6% in the series with SCC-9 [5]; 50.5% in the series with CAL-27 [7]; 47.4% with SCC-25 [8]. The IC50 with SCC-25 [2] was found to be 15.2 nM; in the series with SCC-9 [4] it was 29.7 nM; in [6], 35.2 nM; in series [9] it was 14.8 nM; in the series with CAL-27 [13] it was 11.6 nM. Besides, it took 4670 nM to reach half-maximal inhibition in series [10] (IC50 at 72 h). The inhibition at 72 h, 0.1 µM in series [12] is 11.5%.
In the case of `COc1cc2c(O[C@@H]3O[C@@H]4CO[C@@H](c5ccsc5)O[C@H]4[C@H](OC(C)=O)[C@H]3OC(C)=O)c3c(c(-c4ccc5c(c4)OCO5)c2cc1OC)C(=O)OC3`, the inhibition at 0.1 µM is 61.1% in series [1]; 49.4% in series [3]; 45.8% with SCC-9 [5]; 48.2% in the series on CAL-27 [7]; 47.4% with SCC-25 [8]. Besides, the IC50 turned out to be 43.3 nM in the series with SCC-25 [2]; 16.1 nM with SCC-9 [4]; 92.6 nM in series [6]; 11.6 nM in [9]; 20.1 nM in the series on CAL-27 [13]. The compound also returned an IC50 at 72 h in [10] of over 10000 nM. Besides, in [12], the inhibition at 72 h, 0.1 µM came to 9.07%.
Take `COc1cc2c(OCCOCCN)c3c(c(-c4ccc5c(c4)OCO5)c2cc1OC)C(=O)OC3`: the inhibition at 0.1 µM in series [1] came out at 50.8%; in [3], 34.2%; with SCC-9 [5], 34.9%; in the series with CAL-27 [7], 45.6%; in the series on SCC-25 [8], 28.9%. Further, the IC50 in the series with SCC-25 [2] was 85 nM; in the series with SCC-9 [4] it was 135 nM; in series [6] it was 144 nM; in [9] it was 185 nM; in the series with CAL-27 [13], 101 nM. The compound further had an IC50 at 72 h in series [10] of over 10000 nM. Moreover, the inhibition at 72 h, 0.1 µM in [12] worked out at 18.3%.
